Measured values as given in US9221756B2, “Pyrrole derivatives” (priority 2011, dated 2015).

Tests used:
Perfringolysin O (PFO) = Perfringolysin O (PFO) (Clostridium perfringens, UniProt P0C2E9); experiment: cell-based
[1] = test system: Streptococcus pneumoniae strain D39; experiment: In vivo efficacy assay using a mouse pneumonia model; conditions: MF1 mice
Streptolysin O (SLO) = molecular target: T1, Streptolysin O (SLO) (Streptococcus pyogenes serotype M3, UniProt P0DF97); experiment: Inhibition of the haemolytic activity of Streptolysin O; format: cell-based, Group A Streptococci; conditions: toxin SLO; haemolysis assay protocol of Section A
T1 sequence (P0DF97 34-571): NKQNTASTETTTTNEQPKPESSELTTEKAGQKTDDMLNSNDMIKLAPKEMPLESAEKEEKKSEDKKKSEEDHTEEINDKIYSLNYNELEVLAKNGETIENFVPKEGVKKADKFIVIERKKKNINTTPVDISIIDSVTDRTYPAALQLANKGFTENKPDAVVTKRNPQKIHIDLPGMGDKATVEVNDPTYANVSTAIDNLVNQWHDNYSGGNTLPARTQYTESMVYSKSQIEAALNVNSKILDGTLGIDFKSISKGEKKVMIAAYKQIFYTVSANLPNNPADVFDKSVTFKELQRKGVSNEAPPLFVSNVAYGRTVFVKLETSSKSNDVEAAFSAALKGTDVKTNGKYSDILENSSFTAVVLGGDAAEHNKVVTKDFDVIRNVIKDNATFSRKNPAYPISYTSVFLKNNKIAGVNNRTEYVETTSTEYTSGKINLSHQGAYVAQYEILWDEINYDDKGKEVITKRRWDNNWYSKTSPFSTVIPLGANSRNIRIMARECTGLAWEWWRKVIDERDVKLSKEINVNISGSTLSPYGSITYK

Listeriolysin O (LLO) = Listeriolysin O (LLO) (Listeria monocytogenes serovar 1/2a, UniProt P13128); experiment: Inhibition of the haemolytic activity of Listeriolysin O; format: cell-based; conditions: toxin LLO; haemolysis assay protocol of Section A
Chain of Listeriolysin O (LLO) (P13128 25-529): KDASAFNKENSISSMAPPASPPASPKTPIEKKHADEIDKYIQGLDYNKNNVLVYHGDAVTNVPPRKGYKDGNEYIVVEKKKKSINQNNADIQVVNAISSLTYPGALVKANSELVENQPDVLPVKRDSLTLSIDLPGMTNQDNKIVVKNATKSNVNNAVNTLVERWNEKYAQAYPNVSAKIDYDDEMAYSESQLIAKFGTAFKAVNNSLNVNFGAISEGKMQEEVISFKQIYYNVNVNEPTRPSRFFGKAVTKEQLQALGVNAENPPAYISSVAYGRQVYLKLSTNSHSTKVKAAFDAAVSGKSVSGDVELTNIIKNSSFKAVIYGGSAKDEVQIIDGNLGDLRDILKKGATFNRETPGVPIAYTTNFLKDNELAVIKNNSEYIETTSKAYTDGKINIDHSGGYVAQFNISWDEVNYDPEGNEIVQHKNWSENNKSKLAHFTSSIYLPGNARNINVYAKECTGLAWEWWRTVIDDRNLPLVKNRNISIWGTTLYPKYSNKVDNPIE

Anthrolysin O (ALO) = Anthrolysin O (ALO) (Bacillus anthracis, UniProt A0A6L7HHW7); experiment: cell-based
Chain of Anthrolysin O (ALO) (A0A6L7HHW7 35-512 limits assumed): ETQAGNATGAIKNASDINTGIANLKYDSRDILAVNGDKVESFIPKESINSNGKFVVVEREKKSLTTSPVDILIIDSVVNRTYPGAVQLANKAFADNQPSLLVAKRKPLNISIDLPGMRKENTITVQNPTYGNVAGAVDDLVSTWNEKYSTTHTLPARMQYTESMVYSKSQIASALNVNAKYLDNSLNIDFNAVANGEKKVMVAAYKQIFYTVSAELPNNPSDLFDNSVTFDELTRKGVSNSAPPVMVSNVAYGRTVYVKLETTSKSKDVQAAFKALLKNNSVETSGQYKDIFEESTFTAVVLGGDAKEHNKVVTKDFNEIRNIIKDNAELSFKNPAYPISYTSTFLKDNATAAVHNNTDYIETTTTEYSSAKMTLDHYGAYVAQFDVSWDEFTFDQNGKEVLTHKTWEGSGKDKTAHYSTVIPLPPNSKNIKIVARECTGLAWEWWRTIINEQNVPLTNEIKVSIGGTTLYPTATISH

pneumolysin [2] = molecular target: T2, pneumolysin (Streptococcus pneumoniae serotype 2, UniProt Q04IN8); experiment: Inhibition of the haemolytic activity of pneumolysin (sheep erythrocytes); format: cell-based; conditions: IC50, inhibition of pneumolysin-induced haemolysis of sheep erythrocytes
T2 sequence (Q04IN8 whole entry): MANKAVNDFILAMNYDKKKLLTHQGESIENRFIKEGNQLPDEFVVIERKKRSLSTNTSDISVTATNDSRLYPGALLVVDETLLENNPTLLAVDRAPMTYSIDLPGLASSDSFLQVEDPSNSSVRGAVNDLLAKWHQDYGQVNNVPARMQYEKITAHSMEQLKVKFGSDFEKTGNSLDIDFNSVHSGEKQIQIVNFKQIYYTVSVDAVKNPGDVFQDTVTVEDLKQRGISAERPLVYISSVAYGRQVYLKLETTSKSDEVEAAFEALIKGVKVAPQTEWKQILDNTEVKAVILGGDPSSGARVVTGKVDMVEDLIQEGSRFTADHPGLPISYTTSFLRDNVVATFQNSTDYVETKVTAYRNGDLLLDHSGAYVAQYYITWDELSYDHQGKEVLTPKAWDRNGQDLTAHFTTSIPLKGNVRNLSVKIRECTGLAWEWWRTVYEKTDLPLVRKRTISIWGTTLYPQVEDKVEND

Suilysin (SLY) = Suilysin (SLY) (Streptococcus suis, UniProt Q55996); experiment: Inhibition of the haemolytic activity of Suilysin; format: cell-based; conditions: toxin SLY; haemolysis assay protocol of Section A
Chain of Suilysin (SLY) (Q55996 28-497 limits assumed): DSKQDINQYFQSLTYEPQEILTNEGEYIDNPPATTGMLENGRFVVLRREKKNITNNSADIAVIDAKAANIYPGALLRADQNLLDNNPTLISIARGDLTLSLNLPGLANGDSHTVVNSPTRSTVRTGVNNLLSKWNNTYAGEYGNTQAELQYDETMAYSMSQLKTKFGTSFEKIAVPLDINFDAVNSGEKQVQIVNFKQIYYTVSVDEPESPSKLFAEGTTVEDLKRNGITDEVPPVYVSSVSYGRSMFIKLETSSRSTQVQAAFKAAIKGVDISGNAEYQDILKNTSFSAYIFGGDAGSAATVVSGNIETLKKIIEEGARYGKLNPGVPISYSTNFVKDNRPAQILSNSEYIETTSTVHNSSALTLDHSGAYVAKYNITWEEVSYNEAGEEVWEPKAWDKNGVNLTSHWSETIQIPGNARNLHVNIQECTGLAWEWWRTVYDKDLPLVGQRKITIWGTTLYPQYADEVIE

pneumolysin [3] = molecular target: T2, pneumolysin; experiment: Ex vivo meningitis assay: effect of pneumolysin on ciliary function of cultured ependymal cells; format: cell-based; conditions: rat ependymal cells
Description: (§1) The ependymal ciliated cells line the cerebral ventricles of the brain and the central canal of the spinal cord and are covered with cilia responsible for the circulation of the cerebrospinal fluid (CSF) around the central nervous system. This layer acts as a selective brain barrier to and from the cerebrospinal fluid and plays a role in controlling the CSF volume. […] This model is based on culturing and differentiating ciliated ependymal cells from neonate rat brains, which recreate the in vivo situation, where cells lining the brain ventricles, are exposed to S. pneumoniae and its toxic products.
(§2) Ependymal cell cultures were prepared by the method previously described [Microb. Pathog. (1999) 27 303-309]. Tissue culture trays were coated with bovine fibronectin and incubated at 37° C. in 5% (v/v) CO2 for 2 h before use. […]
(§3) After approximately two weeks, the cells were fully ciliated and ready for experiments. […] Beating cilia were recorded before and after exposure over 30 min, with a digital high-speed video camera at a rate of 500 frames/s. The recorded video sequences were played back at reduced frame rates and the ciliary beat frequency (CBF) was determined by the following equation: […]

[4] = test system: Human lung epithelial cells (A549); conditions: concentrations tested, up to approximately 150 times the therapeutic IC50 value
[5] = mice receiving the compound alone; highest concentration of UL1-012 (16 mg/kg i.v. every 6 h)
[6] = molecular target: T3, S. pneumoniae cell lysate containing native pneumolysin (Streptococcus pneumoniae serotype 2, UniProt Q04IN8); experiment: Ex vivo meningitis assay: effect of bacterial lysate on ciliary function of cultured ependymal cells; format: cell-based; conditions: rat ependymal cells; lysate from penicillin-lysed S. pneumoniae; FIG. 2.B
T3 construct: S. pneumoniae cell lysate containing native pneumolysin; endogenous in cells
T3 sequence (Q04IN8 whole entry): as the sequence (Q04IN8 whole entry) above
Description: as §1, §2, §3

pneumolysin [7] = molecular target: T2, pneumolysin; experiment: Inhibition of pneumolysin-induced lactate dehydrogenase release from A549 cells; format: cell-based

Chain of Perfringolysin O (PFO) (P0C2E9 29-500 limits assumed): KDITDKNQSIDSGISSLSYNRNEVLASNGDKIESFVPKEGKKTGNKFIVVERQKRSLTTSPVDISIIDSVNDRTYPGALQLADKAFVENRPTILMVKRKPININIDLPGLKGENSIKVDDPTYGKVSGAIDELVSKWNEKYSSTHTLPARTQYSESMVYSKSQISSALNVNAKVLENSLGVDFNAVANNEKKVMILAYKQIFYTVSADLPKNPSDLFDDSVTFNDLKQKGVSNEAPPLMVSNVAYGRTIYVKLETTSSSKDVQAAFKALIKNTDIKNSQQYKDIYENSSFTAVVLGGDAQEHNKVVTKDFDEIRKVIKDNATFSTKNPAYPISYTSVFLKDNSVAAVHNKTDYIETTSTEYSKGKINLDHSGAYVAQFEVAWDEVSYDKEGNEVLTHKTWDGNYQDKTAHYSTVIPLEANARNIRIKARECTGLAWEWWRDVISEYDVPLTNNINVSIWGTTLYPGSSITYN

Row | Compound | IC50 (Perfringolysin O (PFO)) [µM] | percentage of survival ([1]; 0.8 mg/kg intranasally every 6 h, 36 h to 60 h post-infection, p<0.05, FIG. 9) [%] | IC50 (Streptolysin O (SLO)) [µM] | IC50 (Listeriolysin O (LLO)) [µM] | IC50 (Anthrolysin O (ALO)) [µM] | IC50 (pneumolysin [2]; class symbols of Table 1) [µM] | IC50 (pneumolysin [2]; specific values) [µM] | IC50 (Suilysin (SLY)) [µM] | ciliary beating frequency (CBF) in the presence of pneumolysin (pneumolysin [3]; UL2-001 2.00 μM, FIG. 3) | cytotoxicity (LDH release, compound alone) [4] | visible adverse effects [5] | survival ([1]; 4 mg/kg intravenously every 6 h, up to approximately 40 h after infection, p<0.05, FIG. 5) | survival, mice surviving at endpoint ([1]; 16 mg/kg intravenously every 6 h, 72 h post infection, p<0.05, FIG. 6) [%] | disease score (signs of disease) ([1]; 16 mg/kg intravenously every 6 h, p<0.05 at 30 h, 36 h, 60 h and 66 h post-infection, FIG. 7) | ciliary beating frequency (CBF) in the presence of bacterial lysate [6] | IC50 (pneumolysin [7]) [µM] | ciliary beating frequency (CBF) in the presence of pneumolysin (pneumolysin [3]; UL1-012 1.56 μM-25 μM, FIG. 2.A)
1 | CCOC(=O)c1c(O)c(O)c(C(=O)OCC)n1-c1ccc(OC)cc1 [UL2-001, diethyl 3,4-dihydroxy-1-(4-methoxyphenyl)-1H-pyrrole-2,5-dicarboxylate] | < 10 | 60 | 20 to 60 | < 10 | < 10 | < 10 | 0.3 | < 10 | No significant loss of the CBF |  |  |  |  |  |  |  | 
2 | CCOC(=O)c1c(O)c(O)c(C(=O)N(C)C)n1-c1ccc(OC)cc1 [UL1-012, ethyl 5-(dimethylcarbamoyl)-3,4-dihydroxy-1-(4-methoxyphenyl)-1H-pyrrole-2-carboxylate] | < 10 |  | < 10 | < 10 | < 10 | < 10 | 0.15 | < 10 |  | does not exhibit cytotoxicity | no visible adverse effects | significant improvement in the survival | 50 | significant attenuation of the signs of the disease | significantly prevented the drop of the CBF | < 0.4 | No significant loss of the CBF
